Data from paper PMC9782601, “A Fucosylated Lactose-Presenting Tetravalent Glycocluster Acting as a Mutual Ligand of Pseudomonas aeruginosa Lectins A (PA-IL) and B (PA-IIL)—Synthesis and Interaction Studies” (International Journal of Molecular Sciences, 2022).

How the values were obtained:
Type in all cases: binding
[1] = molecular target: T1, PA-IIL (LecB) (Pseudomonas aeruginosa, UniProt Q9HYN5); assay: isothermal titration calorimetry, single-site model; settings: 0.1 M Tris/HCl, 500 μM CaCl2, pH 7.5, 25 °C
T1 construct: freeze-dried; tetramer, one sugar site with two calcium ions per monomer
T1 sequence (Q9HYN5 entry or part of it): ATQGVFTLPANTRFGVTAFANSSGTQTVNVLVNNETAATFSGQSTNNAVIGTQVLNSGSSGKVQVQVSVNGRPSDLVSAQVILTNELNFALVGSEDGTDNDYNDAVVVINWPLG
Source text: isothermal titration calorimetry, single-site model on PA-IIL (LecB)

[2] = molecular target: T2, PA-IL (LecA) (Pseudomonas aeruginosa, UniProt Q05097); assay: as above; settings: 0.1 M Tris/HCl, 500 μM CaCl2, pH 7.5, 25 °C
T2 construct: freeze-dried; tetramer, one sugar site with one calcium ion per monomer
T2 sequence (Q05097 2-122): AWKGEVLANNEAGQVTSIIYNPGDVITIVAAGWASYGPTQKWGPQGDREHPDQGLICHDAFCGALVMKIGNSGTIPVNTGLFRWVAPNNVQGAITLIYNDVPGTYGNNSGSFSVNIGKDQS
Source text: isothermal titration calorimetry, single-site model on PA-IL (LecA)

[3] = molecular target: T2, PA-IL (LecA); assay: 1H STD NMR, reference ligand; settings: 4 mM ligand, 40 μM lectin, D2O, 20 mM Tris-d11, 150 mM NaCl, 5 mM CaCl2, pH 7.5, 283 K

SMILES: C#CCO[C@@H]1O[C@H](CO)[C@@H](O[C@@H]2O[C@H](CO)[C@H](O)[C@H](O)[C@H]2O)[C@H](O[C@@H]2O[C@@H](C)[C@@H](O)[C@@H](O)[C@@H]2O)[C@H]1O [compound 6, Compound 6]
- Ka [10^4 M^-1] ([1]; n = 1.12): 344 ± 124 10^4 M^-1
- Ka [10^4 M^-1] ([2]; n = 0.51): 59 ± 28.4 10^4 M^-1

SMILES: CO[C@H]1O[C@H](CO)[C@H](O)[C@H](O)[C@H]1O [Meα-D-Gal]
- STD signal [3]: The STD signals (highlighted by red ellipsoids) confirm the binding of Meα-D-Gal

SMILES: C[C@@H]1O[C@@H](O[C@@H]2[C@@H](O)[C@H](OCc3cn(CCn4cc(COCC(COCc5cn(CCn6cc(CO[C@@H]7O[C@H](CO)[C@@H](O[C@@H]8O[C@H](CO)[C@H](O)[C@H](O)[C@H]8O)[C@H](O[C@@H]8O[C@@H](C)[C@@H](O)[C@@H](O)[C@@H]8O)[C@H]7O)nn6)nn5)(COCc5cn(CCn6cc(CO[C@@H]7O[C@H](CO)[C@@H](O[C@@H]8O[C@H](CO)[C@H](O)[C@H](O)[C@H]8O)[C@H](O[C@@H]8O[C@@H](C)[C@@H](O)[C@@H](O)[C@@H]8O)[C@H]7O)nn6)nn5)COCc5cn(CCn6cc(CO[C@@H]7O[C@H](CO)[C@@H](O[C@@H]8O[C@H](CO)[C@H](O)[C@H](O)[C@H]8O)[C@H](O[C@@H]8O[C@@H](C)[C@@H](O)[C@@H](O)[C@@H]8O)[C@H]7O)nn6)nn5)nn4)nn3)O[C@H](CO)[C@H]2O[C@@H]2O[C@H](CO)[C@H](O)[C@H](O)[C@H]2O)[C@@H](O)[C@H](O)[C@@H]1O [compound 8, Compound 8]
- Ka [10^4 M^-1] ([1]; n = 1.12 pH, buffer, temperature, tetravalent ligand, n = 1.1): 257 ± 66.9 10^4 M^-1
- Ka [10^4 M^-1] ([2]; n = 0.51 pH, buffer, temperature, tetravalent ligand, n = 0.89): 496 ± 104 10^4 M^-1
